Counter-ions that a name gives are not always drawn. Like-named read-outs stand apart in the source and are kept apart here.
Columns and labels:
human Granzyme B (hGzmB) = biological target: T1, human Granzyme B (hGzmB) (Homo sapiens, UniProt P10144); assay: Human Granzyme B enzymatic inhibition assay (fluorogenic, kinetic); type: biochemical; conditions: activity codes, Table 7; read-out: IC50 Activity Range
T1 construct: purchased Froelich Lab, Northshore University Health Systems Research Institute, Evanston, Ill., USA
T1 sequence (P10144 21-247): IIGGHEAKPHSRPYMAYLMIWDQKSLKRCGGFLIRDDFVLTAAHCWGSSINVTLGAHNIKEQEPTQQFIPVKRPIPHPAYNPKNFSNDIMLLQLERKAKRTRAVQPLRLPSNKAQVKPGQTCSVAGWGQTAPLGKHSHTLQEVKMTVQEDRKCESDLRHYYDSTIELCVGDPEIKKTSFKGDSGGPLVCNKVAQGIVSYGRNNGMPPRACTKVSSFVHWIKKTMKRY
Method in brief: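 Human Granzyme B preincubated with compound for 30 min total (5 min shaking, 20 min bench, then reaction temperature). Fluorogenic substrate added and read kinetically, 25 cycles at 1-min intervals. Percent inhibition at one or two concentrations or 8–12-point 3-fold dose response from 20 uM, replicates, with IC50 by non-linear regression.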

[1] = Kinetic solubility determination in PBS; type: physicochemical; conditions: PBS 1X pH 7.4, 2.0% DMSO, 24 hour incubation at ambient temperature; for solubility at 24 h: phosphate buffered saline (PBS 1×), 21 °C, pH 7.4, aqueous buffer, kinetic from dmso stock
Protocol: Kinetic solubility buffer (phosphate buffered saline (PBS, 1×) at pH 7.4) was prepared from PBS (10×) solution, (Fisher Scientific, Pittsburgh, Pa., USA, 10×), by adding PBS (50 mL, 10×) to approximately water (450 mL HPLC grade). The volume of the solution was then adjusted to 500 mL for a total dilution factor of 1:10 and a final PBS concentration of 1×. The pH of the final solution (PBS (1×)) was measured and found to be 7.4.
A DMSO stock solution (typically 10 mM or greater) was used for each compound to be tested. A final DMSO concentration of 2.0% and maximum theoretical compound concentration of typically 200 μM (or greater) was achieved by diluting an aliquot (6 μl) of each stock with kinetic solubility buffer (294 μl, PBS (1×) at pH 7.4) using a liquid handling system (Hamilton STARlet, Hamilton Robotics, Inc., Reno, Nev., USA) and incubated directly in a solubility filter plate (Millipore, Billerica, Mass., USA). Following 24 hour incubation at ambient temperature (20.5-21.7° C.), each sample was vacuum filtered. The filtrate was injected into the chemiluminescent nitrogen detector for quantification (Automated Discovery Workstation, Analiza, Inc., Cleveland, Ohio, USA). Each result was reported both in μM and μg/mL units. Three separate on-board performance indicating standards were assayed in triplicate with each test compound to ensure test results were within the acceptable range.
The equimolar nitrogen response of the detector was calibrated using standards which spanned the dynamic range of the instrument from 0.08 to 4500 μg/ml nitrogen. Each filtrate was quantified with respect to this calibration curve. Each calculated solubility value was corrected for background nitrogen present in the DMSO, and buffer used to prepare each sample. All reported values for samples containing adjacent nitrogen atoms in a ring structure were corrected for the expected non-equimolar response. Each calculated solubility result assumed that each sample was free of nitrogen containing impurities and was stable under the assay conditions. Analyses were performed at Analiza Inc. (Cleveland, Ohio, USA) by published methods (Bhattachar, S. N., et al, J. Pharma. BioMed Anal. 41:152-7 2006).

[2] = read-out: Solubility in aqueous PBS Buffer (1X, pH 7.4)
[3] = read-out: Solubility in aqueous PBS Buffer (1X, pH 7.4), ug/mL

IC50 (human Granzyme B (hGzmB))	Solubility in aqueous PBS Buffer (1X, pH 7.4), uM [1]	Solubility in aqueous PBS Buffer (1X, pH 7.4), ug/mL [1]	solubility at 24 h [1, 2]	solubility at 24 h [1, 3]	SMILES
< 100 nM	–	–	679 µM	447 µg/mL	CC[C@H](C)[C@H](NC(=O)CC(C)(C)CC(=O)O)C(=O)NCC(=O)N1c2ccccc2C[C@H]1C(=O)NCc1nn[nH]n1 [Example A18, 3,3-Dimethyl-4-{[(1S,2S)-2-Methyl-1-({2-Oxo-2-[(2S)-2-[(2H-1,2,3,4-Tetrazol-5-Ylmethyl)Carbamoyl]-2,3-Dihydro-1H-Indol-1-Yl]Ethyl}Carbamoyl)Butyl]Carbamoyl}Butanoic Acid]
100 to 1000 nM	–	–	> 150 µM	> 88 µg/mL	CC[C@H](C)[C@H](NC(=O)Cc1ccc(N)cc1)C(=O)NCC(=O)N1c2ccccc2C[C@H]1C(=O)NCc1nn[nH]n1 [Example A8, (2S)-1-{2-[(2S,3S)-2-[2-(4-Aminophenyl)Acetamido]-3-Methylpentanamido]Acetyl}-N-(2H-1,2,3,4-Tetrazol-5-Ylmethyl)-2,3-Dihydro-1H-Indole-2-Carboxamide Hydrochloride]
< 100 nM	–	–	107 µM	57 µg/mL	CC[C@H](C)[C@H](NC(=O)CCCC(=O)O)C(=O)NCC(=O)N1c2ccccc2C[C@H]1C(=O)NCc1nn[nH]n1 [Example A14, 4-{[(1S,2S)-2-Methyl-1-({2-Oxo-2-[(2S)-2-[(2H-1,2,3,4-Tetrazol-5-Ylmethyl)Carbamoyl]-2,3-Dihydro-1H-Indol-1-Yl]Ethyl}Carbamoyl)Butyl]Carbamoyl}Butanoic Acid]
100 to 1000 nM	–	–	> 150 µM	> 80 µg/mL	CC[C@H](C)[C@H](NC(=O)Cc1ccccn1)C(=O)NCC(=O)N1c2ccccc2C[C@H]1C(=O)NCc1nn[nH]n1 [Example A4, (2S)-1-{2-[(2S,3S)-3-Methyl-2-[2-(Pyridin-2-Yl)Acetamido]Pentanamido]Acetyl}-N-(2H-1,2,3,4-Tetrazol-5-Ylmethyl)-2,3-Dihydro-1H-Indole-2-Carboxamide]
< 100 nM	–	–	> 750 µM	> 418 µg/mL	CC[C@H](C)[C@H](NC(=O)C(C)(C)CCC(=O)O)C(=O)NCC(=O)N1c2ccccc2C[C@H]1C(=O)NCc1nn[nH]n1 [Example A55, 4,4-Dimethyl-4-{[(1S,2S)-2-Methyl-1-({2-Oxo-2-[(2S)-2-[(2H-1,2,3,4-Tetrazol-5-Ylmethyl)Carbamoyl]-2,3-Dihydro-1H-Indol-1-Yl]Ethyl}Carbamoyl)Butyl]Carbamoyl}Butanoic Acid]
< 100 nM	–	–	682 µM	359 µg/mL	O=C(O)CCC(=O)N[C@H](C(=O)NCC(=O)N1c2ccccc2C[C@H]1C(=O)NCc1nn[nH]n1)C1CCCC1 [Example A45, 3-{[(S)-Cyclopentyl({2-Oxo-2-[(2S)-2-[(2H-1,2,3,4-Tetrazol-5-Ylmethyl)Carbamoyl]-2,3-Dihydro-1H-Indol-1-Yl]Ethyl}Carbamoyl)Methyl]Carbamoyl}Propanoic Acid]
100 to 1000 nM	–	–	> 750 µM	> 442 µg/mL	CC[C@H](C)[C@H](NC(=O)Cc1ccccc1)C(=O)NCC(=O)N1c2cc(NC(C)=O)ccc2C[C@H]1C(=O)NCc1nn[nH]n1 [Example C27, (2S)-6-Acetamido-1-{2-[(2S,3S)-3-Methyl-2-(2-Phenylacetamido)Pentanamido]Acetyl}-N-(2H-1,2,3,4-Tetrazol-5-Ylmethyl)-2,3-Dihydro-1H-Indole-2-Carboxamide]
< 100 nM	–	–	> 750 µM	> 375 µg/mL	CC(C)[C@H](NC(=O)CCC(=O)O)C(=O)NCC(=O)N1c2ccccc2C[C@H]1C(=O)NCc1nn[nH]n1 [Example A46, 3-{[(1S)-2-Methyl-1-({2-Oxo-2-[(2S)-2-[(2H-1,2,3,4-Tetrazol-5-Ylmethyl)Carbamoyl]-2,3-Dihydro-1H-Indol-1-Yl]Ethyl}Carbamoyl)Propyl]Carbamoyl}Propanoic Acid]
100 to 1000 nM	–	–	594 µM	323 µg/mL	O=C(Cc1ccccc1)N[C@H](C(=O)NCC(=O)N1c2ccccc2C[C@H]1C(=O)NCc1nn[nH]n1)C1CCCC1 [Example A12, (2S)-1-{2-[(2S)-2-Cyclopentyl-2-(2-Phenylacetamido)Acetamido]Acetyl}-N-(2H-1,2,3,4-Tetrazol-5-Ylmethyl)-2,3-Dihydro-1H-Indole-2-Carboxamide]
100 to 1000 nM	–	–	> 150 µM	> 78 µg/mL	CC(C)[C@H](NC(=O)Cc1ccccc1)C(=O)NCC(=O)N1c2ccccc2C[C@H]1C(=O)NCc1nn[nH]n1 [Example C1, (2S)-1-{2-[(2S)-3-Methyl-2-(2-Phenylacetamido)Butanamido]Acetyl}-N-(2H-1,2,3,4-Tetrazol-5-Ylmethyl)-2,3-Dihydro-1H-Indole-2-Carboxamide]
< 100 nM	–	–	> 750 µM	> 385 µg/mL	CC[C@H](C)[C@H](NC(=O)CCC(=O)O)C(=O)NCC(=O)N1c2ccccc2C[C@H]1C(=O)NCc1c[nH]nn1 [Example A16, 3-{[(1S,2S)-2-Methyl-1-({2-Oxo-2-[(2S)-2-[(1H-1,2,3-Triazol-4-Ylmethyl)Carbamoyl]-2,3-Dihydro-1H-Indol-1-Yl]Ethyl}Carbamoyl)Butyl]Carbamoyl}Propanoic Acid]
< 100 nM	–	–	> 750 µM	> 443 µg/mL	CC[C@H](C)[C@H](NC(=O)Cc1ccc(CC(=O)O)cc1)C(=O)NCC(=O)N1c2ccccc2C[C@H]1C(=O)NCc1nn[nH]n1 [Example A34, 2-[4-({[(1S,2S)-2-Methyl-1-({2-Oxo-2-[(2S)-2-[(2H-1,2,3,4-Tetrazol-5-Ylmethyl)Carbamoyl]-2,3-Dihydro-1H-Indol-1-Yl]Ethyl}Carbamoyl)Butyl]Carbamoyl}Methyl)Phenyl]Acetic Acid]
< 100 nM	–	–	–	–	CC[C@H](C)[C@H](NC(=O)Cc1cccc(CC(=O)O)c1)C(=O)NCC(=O)N1c2ccccc2C[C@H]1C(=O)NCc1nn[nH]n1 [Example A35, 2-[3-({[(1S,2S)-2-Methyl-1-({2-Oxo-2-[(2S)-2-[(2H-1,2,3,4-Tetrazol-5-Ylmethyl)Carbamoyl]-2,3-Dihydro-1H-Indol-1-Yl]Ethyl}Carbamoyl)Butyl]Carbamoyl}Methyl)Phenyl]Acetic Acid]
1000 to 10000 nM	–	–	–	–	O=C(O)CCC(=O)N1CCCC[C@H]1C(=O)NCC(=O)N1c2ccccc2C[C@H]1C(=O)NCc1nn[nH]n1 [Example C25, 4-Oxo-4-[(2S)-2-({2-Oxo-2-[(2S)-2-[(2H-1,2,3,4-Tetrazol-5-Ylmethyl)Carbamoyl]-2,3-Dihydro-1H-Indol-1-Yl]Ethyl}Carbamoyl)Piperidin-1-Yl]Butanoic Acid]

Second part, the molecule before the results:

SMILES	IC50 (human Granzyme B (hGzmB))	Solubility in aqueous PBS Buffer (1X, pH 7.4), uM [1]	Solubility in aqueous PBS Buffer (1X, pH 7.4), ug/mL [1]	solubility at 24 h [1, 2]	solubility at 24 h [1, 3]
CC[C@H](C)[C@H](NC(=O)C(C)CC(=O)O)C(=O)NCC(=O)N1c2ccccc2C[C@H]1C(=O)NCc1nn[nH]n1 (single isomer, unassigned) [Example A30-2]	< 100 nM	>750 uM	>396 ug/mL	–	–
CC[C@H](C)[C@H](NC(=O)C1CC1C(=O)O)C(=O)NCC(=O)N1c2ccccc2C[C@H]1C(=O)NCc1nn[nH]n1 (single isomer, unassigned) [Example A26-1]	< 100 nM	–	–	> 750 µM	> 395 µg/mL
CC[C@H](C)[C@H](NC(=O)C1CC=CCC1C(=O)O)C(=O)NCC(=O)N1c2ccccc2C[C@H]1C(=O)NCc1nn[nH]n1 (single isomer, unassigned) [Example A21-1]	< 100 nM	–	–	> 750 µM	> 425 µg/mL
CC[C@H](C)[C@H](NC(=O)C1CCCCC1C(=O)O)C(=O)NCC(=O)N1c2ccccc2C[C@H]1C(=O)NCc1nn[nH]n1 (single isomer, unassigned) [Example A23-1]	< 100 nM	>750 uM	>426 ug/mL	–	–
CC[C@H](C)[C@H](NC(=O)C(C)CC(=O)O)C(=O)NCC(=O)N1c2ccccc2C[C@H]1C(=O)NCc1nn[nH]n1 (single isomer, unassigned) [Example A30-1]	< 100 nM	–	–	> 750 µM	> 396 µg/mL
CC[C@H](C)[C@H](NC(=O)C(CCC(=O)O)c1ccccc1)C(=O)NCC(=O)N1c2ccccc2C[C@H]1C(=O)NCc1nn[nH]n1 (single isomer, unassigned) [Example A54-1]	< 100 nM	–	–	451 µM	273 µg/mL

From US10329324B2 (viDA Therapeutics Inc., priority 2013, dated 2019)
